Assay results: patent publication US20240148723A1, “MYCOBACTERIUM TUBERCULOSIS COMPOSITIONS AND METHODS” (priority 2021, published 2024)
In brackets after ≈: the same amount, converted by molar mass.

Tested on: M. tuberculosis
Format: cell-based, Mycobacterium tuberculosis
Conditions: pH 6.8

Row | SMILES | MIC in the media 7H9 [µg/mL] | MIC in the media L-Ala [µg/mL] | MIC in the media SBA [µg/mL] | MIC in the media SLac [µg/mL]
1 | O=[N+]([O-])c1oc2ccc3ccccc3c2c1CCO [compound 373981] | ≥ 0.82 | 0.82 (≈ 3.19 µM) | 0.82 (≈ 3.19 µM) | 0.82 (≈ 3.19 µM)
2 | Cc1ccc(NCCN(C)C)c2c(=O)c3cc(O)ccc3sc12.I [compound 317003] | ≥ 5.70 | 2.85 | 2.85 | 1.46
3 | O=[N+]([O-])c1ccc(Sc2cccc[n+]2[O-])c2nonc12 [compound 228155] | ≥ 0.93 | 0.93 (≈ 3.2 µM) | 0.93 (≈ 3.2 µM) | 0.93 (≈ 3.2 µM)
4 | NC1(N2SC(S)=C3CCCC=C32)CCCCC1 [compound 327444] | ≥ 26.84 | 6.71 (≈ 25 µM) | 13.42 (≈ 50 µM) | 3.36 (≈ 12.5 µM)
5 | O=c1[nH]c(=S)[nH]cc1Oc1ccc(Cl)cc1Cl [compound 73753] | ≥ 115.66 | 14.46 (≈ 50 µM) | 14.46 (≈ 50 µM) | 1.81 (≈ 6.26 µM)
6 | NC(=O)c1ccccc1N [compound 38768] | ≥ 54.48 | 54.48 (≈ 400 µM) | 54.48 (≈ 400 µM) | 54.48 (≈ 400 µM)
7 | NC(=O)c1cccnc1 [compound 13128] | ≥ 800 | 400 (≈ 3280 µM) | 400 (≈ 3280 µM) | 400 (≈ 3280 µM)
8 | CC(C)c1ccc2c(c1)CCC1C(C)(C(=O)O)CCCC21C (stereo not drawn) [compound 2952] | ≥ 30.04 | 3.76 (≈ 12.5 µM) | 7.51 (≈ 25 µM) | 1.88 (≈ 6.26 µM)
9 | N#CC(c1ccccc1)C(CC(=NO)c1ccccc1)c1ccccc1 (mixture of isomers) [compound 186200] | ≥ 136.16 | 17.02 | 34.04 | 2.13
10 | CN(CC(=O)O)Cc1c(O)c(Cl)cc(Cl)c1Cl [compound 45114] | ≥ 119.40 | 29.85 (≈ 100 µM) | 14.93 (≈ 50 µM) | 3.73 (≈ 12.5 µM)
11 | O=C1c2cccc3cc([N+](=O)[O-])cc(c23)C(=O)N1CCN1CCCC1 [compound 300289] | ≥ 8.48 | 4.24 (≈ 12.5 µM) | 2.12 (≈ 6.25 µM) | 2.12 (≈ 6.25 µM)
12 | COC(=O)c1cccc([N+](=O)[O-])c1 [compound 1327] | ≥ 72.48 | 9.06 (≈ 50 µM) | 4.53 (≈ 25 µM) | 2.27 (≈ 12.5 µM)
13 | CCOC(CNCc1cc(C)c2[nH]c3ccccc3c2c1C)OCC [compound 79486] | ≥ 17.03 | 8.51 (≈ 25 µM) | 8.51 (≈ 25 µM) | 2.13 (≈ 6.26 µM)
14 | CSc1nc(=O)[nH]nc1Sc1ccccc1 [compound 134058] | ≥ 25.13 | 6.28 (≈ 25 µM) | 3.14 (≈ 12.5 µM) | 3.14 (≈ 12.5 µM)
15 | N=C(N)c1ccc(OCCCCCOc2ccc(C(=N)N)cc2)cc1 [compound 9921] | ≥ 8.51 | 2.13 (≈ 6.26 µM) | 4.26 (≈ 12.5 µM) | 1.09 (≈ 3.2 µM)
16 | O=C(O)c1cc2ccccc2cc1Nc1ccccc1 [compound 40275] | ≥ 26.33 | 3.29 (≈ 12.5 µM) | 3.29 (≈ 12.5 µM) | 0.84 (≈ 3.19 µM)
17 | NC(=O)c1cnccn1 [compound 14911] | ≥ 800 | 200 (≈ 1620 µM) | 100 (≈ 812 µM) | 200 (≈ 1620 µM)
18 | CSc1ccc2c(c1)C(N1CCN(C)CC1)Cc1ccccc1S2.O=C(O)/C=C\C(=O)O (stereo not drawn) [compound 281816] | ≥ 11.82 | 2.95 | 2.95 | 2.95
19 | Cn1ccc(=Nc2ccc(NC(=O)c3ccc(N=c4ccn(C)c5ccc([N+](=O)[O-])cc45)cc3)cc2)cc1 [compound 260594] | ≥ 0.81 | 0.81 (≈ 1.61 µM) | 1.61 (≈ 3.19 µM) | 0.40 (≈ 0.793 µM)
20 | COc1ccc2nc3cc(Cl)ccc3c(Nc3cc(C(C)C)c(O)cc3C)c2c1 [compound 13051] | ≥ 20.35 | 2.54 (≈ 6.24 µM) | 2.54 (≈ 6.24 µM) | 1.30 (≈ 3.19 µM)
21 | O=C1C[C@@H](c2ccccc2)Oc2cc(O)cc(O)c21 [compound 43318] | ≥ 101.70 | 6.36 (≈ 24.8 µM) | 6.36 (≈ 24.8 µM) | 0.41 (≈ 1.6 µM)
22 | Cc1ccc([S+]([O-])c2ccc([N+](=O)[O-])c3nonc23)cc1 (stereo not drawn) [compound 228150] | ≥ 30.33 | 7.58 (≈ 25 µM) | 3.79 (≈ 12.5 µM) | 3.79 (≈ 12.5 µM)
23 | OC(COc1ccc(Cl)cc1)CN1CCN(c2cccc(Cl)c2)CC1 (stereo not drawn) [compound 91340] | ≥ 38.13 | 4.77 (≈ 12.5 µM) | 9.53 (≈ 25 µM) | 4.77 (≈ 12.5 µM)
24 | COC(=O)c1ccc(N)cc1O [compound 30263] | ≥ 4.18 | 1.05 (≈ 6.28 µM) | 4.18 (≈ 25 µM) | 1.05 (≈ 6.28 µM)
25 | CCOC(=O)c1ccc([N+](=O)[O-])cc1 [compound 6763] | ≥ 78.08 | 9.76 (≈ 50 µM) | 4.88 (≈ 25 µM) | 4.88 (≈ 25 µM)
26 | COc1cc2c(cc1O)C[C@H]1c3c(cc4c(c3-2)OCO4)CCN1C [compound 785178] | ≥ 16.27 | 8.13 (≈ 25 µM) | 4.07 (≈ 12.5 µM) | 4.07 (≈ 12.5 µM)
27 | c1ccc(Sc2ncnc3ccccc23)cc1 [compound 51331] | ≥ 23.83 | 11.92 (≈ 50 µM) | 11.92 (≈ 50 µM) | 2.98 (≈ 12.5 µM)
28 | COc1ccc(-c2coc3cc(O)cc(O)c3c2=O)cc1 [compound 123538] | ≥ 113.70 | 7.11 (≈ 25 µM) | 7.11 (≈ 25 µM) | 0.45 (≈ 1.58 µM)
29 | COc1cccc2[nH]c(-c3ccccn3)nc12 [compound 320656] | ≥ 45.06 | 5.63 (≈ 25 µM) | 11.27 (≈ 50 µM) | 1.41 (≈ 6.26 µM)
30 | Cc1ccc(C)c(N2CCN(c3ccncc3N)CC2)c1 [compound 147866] | ≥ 14.12 | 14.12 (≈ 50 µM) | 7.06 (≈ 25 µM) | 1.77 (≈ 6.27 µM)
